{
  "source": "patent US20050020542A1",
  "about": "“Method of modulating sodium ion absorption in epithelial cells” (priority 2001, published 2005)",
  "key": {"CFHNE monolayers": {"system": "CFHNE monolayers", "experiment": "Monolayer resistance / tight junction integrity in Ussing chambers (toxicity)", "type": "cell-based, human", "experimental": "3. In addition, delayed toxic effects could result in long-term damage of the monolayers that would not become apparent for several hours. Therefore, it is of interest to note whether the resistance or conductance was affected during this period. A reduction in resistance in monolayers treated with compound could indicate weakened tight junctions.\n[…] […] As a control, the effect of pretreatment with phosphate-propionoxymethyl ester (26.6 μM) was tested using the same protocol."}, "human CF nasal epithelia": {"system": "human CF nasal epithelia", "experiment": "Blue Dextran volume transport assay (fluid absorption)", "type": "cell-based", "text": "In normal human airway epithelia, Na^+ and Cl^− currents (CFTR and Ca^2+-activated Cl^− currents) contribute to airway surface liquid (ASL) fluid volume regulation depending on signaling equilibria. In contrast, in human CF airway epithelia, Na^+ currents through ENaC dominate basal ASL volume regulation accompanied by a relatively minor contribution through Ca^2+-activated Cl^− currents. The combination of enhanced ENaC currents and transient Ca^2+-activated Cl^− currents in CF result in an inadequate hydration of the ASL and reduction of mucociliary clearance. Since INO-E2 reduces Na^+ transport through ENaC, we hypothesized that INO-E2 would have a functional effect, similar to amiloride, and inhibit fluid absorption. To test this hypothesis, we exposed well differentiated monolayer cultures of CF nasal epithelia to an apically applied buffer containing INO-E2 and a known concentration of the non-permeable molecule Blue Dextran (BD). The resulting reduction in the ability of these monolayers to concentrate BD was taken as a functional indicator of INO-E2's involvement in the inhibition of ENaC.\nHEPES Modified Ringer's Buffer (HMRB) was used for these assays. HMRB was sterilized by positive pressure filtration through a 0.2 um syringe tip filter (Gelman acrodisc). The BD stock solution was aseptically prepared with sterile buffer (2 mg BD/ml buffer). Compounds to be tested were solubilized in sterile HMRB containing 1 μM BD (final concentration of vehicle is 0.1% (1:1, DMSO+DMSO containing 5% pluronic-F127). […] A standard concentration curve was obtained by determining the optical densities of a serial dilution of 10 μM Blue Dextran in HMRB placed in a Falcon 3027 96-well plate. The optical density of BD in the solution was obtained by analysis at 660 nm in a Packard Spectracount. Standards and samples were analyzed on the same plate. 50 μl volumes were used for all samples and standards. The [BD] of the samples was determined by extrapolation from the standard curve using the Packard I-Smart software. The increase in [BD] from the starting value of 1 μM was taken to be an indication of the magnitude of volume absorption occurring across the monolayer. The rate of absorption was calculated by dividing the change in volume by the duration of the experiment. This value was normalized to a surface area of 1 cm^2, to give μl·cm^2−1·hr^−1. To address evaporative loss, which would appear in the data as artificially high absorptive rates, dummy membranes were constructed by attaching a thin Sylgard sheet to snapwells/transwells with silicon sealant. These dummy membranes were used in parallel with the epithelial monolayers to assess evaporative loss for each experiment."}},
  "note": "“Also recorded” adds a separate entry of the source.",
  "data": [
    {"smiles": "CCCCCCCCOC1C(OC(=O)CCC)C(OP(=O)(OCOC(=O)CC)OCOC(=O)CC)C(OP(=O)(OCOC(=O)CC)OCOC(=O)CC)C(OP(=O)(OCOC(=O)CC)OCOC(=O)CC)C1OP(=O)(OCOC(=O)CC)OCOC(=O)CC", "note": "(centres unmarked) [INO-E2, 2-O-butyryl-1-O-octyl-myo-inositol 3,4,5,6-tetrakisphosphate octakis (propionoxymethyl) ester]", "values": [
      {"measurement": "toxicity on repeated exposure (deterioration of tight junctions)", "setting": "CFHNE monolayers; 1-2.5 μM repeatedly over 96 hours", "value": "no indication of toxicity; also recorded: No evidence of toxicity"},
      {"measurement": "toxic effects as evaluated by tight junction integrity", "setting": "CFHNE monolayers; 2 hr exposure 24 hrs before, up to highest concentration 200 μM", "value": "no apparent toxic effects"},
      {"measurement": "integrity of the monolayers at high concentration", "setting": "CFHNE monolayers; concentrations in 100 fold excess of the acute EC50", "value": "no decrement in the integrity of the monolayers"},
      {"measurement": "monolayer resistance", "setting": "CFHNE monolayers; measured shortly after mounting, highest concentration 200 μM", "value": "increased"},
      {"measurement": "change of potency on fluid absorption with repeat administration", "setting": "human CF nasal epithelia; 2 hours each day for 8 days at 0.1 μM or 1 μM, n=6", "value": "enhancement of compound potency"},
      {"measurement": "potency compared with amiloride in fluid secretion assay", "setting": "human CF nasal epithelia; comparison 100 μM amiloride", "value": "as potent as amiloride"},
      {"measurement": "duration of effects compared with amiloride", "setting": "human CF nasal epithelia; conditions that model therapeutic exposure times", "value": "longer-lasting"},
      {"measurement": "duration of effect on fluid secretion following a brief (pulsed) exposure", "setting": "human CF nasal epithelia; pulsed exposure, FIG. 17", "value": "prolonged effects"}
    ]}
  ]
}
